In one assay the target is T1, rDdGSTA3 (Dictyostelium discoideum, UniProt Q54VI4).
T1 construct: gene gsta3
T1 sequence (Q54VI4 1-204): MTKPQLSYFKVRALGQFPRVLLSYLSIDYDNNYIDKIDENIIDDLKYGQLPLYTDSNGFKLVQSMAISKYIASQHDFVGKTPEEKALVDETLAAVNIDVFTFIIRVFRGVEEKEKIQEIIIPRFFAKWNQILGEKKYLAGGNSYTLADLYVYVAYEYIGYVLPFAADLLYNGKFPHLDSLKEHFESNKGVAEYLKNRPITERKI
In words: CDNB conjugation, absorbance at […] nm, Michaelis-Menten fit. The following applies: saturating GSH; pH 7.5; 25°C. It counts as biochemical.

The target of another assay is T2, rDdGSTA2 (Dictyostelium discoideum, UniProt Q556G3).
T2 construct: gene gsta2-1
T2 sequence (Q556G3 1-198): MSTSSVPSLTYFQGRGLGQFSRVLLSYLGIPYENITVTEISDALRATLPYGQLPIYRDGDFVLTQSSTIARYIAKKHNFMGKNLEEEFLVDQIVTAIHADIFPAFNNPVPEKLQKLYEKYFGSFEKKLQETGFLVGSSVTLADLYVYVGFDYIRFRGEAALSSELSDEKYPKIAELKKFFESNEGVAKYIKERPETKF
The assay is described as above. The class given is biochemical. The following applies: saturating GSH; pH 7.5; 25°C.

As usually defined, the Km is the substrate concentration at which the rate is half of its maximum. As for `O=[N+]([O-])c1ccc(Cl)c([N+](=O)[O-])c1` [CDNB, 1-chloro-2,4-dinitrobenzene], the figures for the Km on rDdGSTA3 and on rDdGSTA2 were 562 ± 98.1 µM and 1290 ± 200 µM, respectively.

Source of the values: article PMC8081208, “Characterization of glutathione S-transferase enzymes in Dictyostelium discoideum suggests a functional role for the GSTA2 isozyme in cell proliferation and development” (PLoS ONE, 2021).
